# Patent US6545053B1, “Tricyclic compounds and drug compositions containing same” (Asahi Kasei Kogyo Kabushiki Kaisha, priority 1996, dated 2003)
# pEC50: −log10 of the molar value. Structures can show the parent of a compound that is named as a salt. Where two headings read alike, the source gives them in different places.
# Legend:
# human β3 = target: T1, human β3 (Homo sapiens, UniProt P13945); test: Human β3-agonist activity (cAMP in CHO cells transfected with human β3 gene); type: cell-based; conditions: for Emax: CHO, read-out: Intrinsic activity (%)
# T1 construct: And then full length of human β3 gene was cloned using this fragment as a probe; expressed in transfected cells; host or cells: CHO cells (Chinese hamster ovary), pcDNA3 vector
# T1 sequence (P13945 whole entry, the tested form may be a part): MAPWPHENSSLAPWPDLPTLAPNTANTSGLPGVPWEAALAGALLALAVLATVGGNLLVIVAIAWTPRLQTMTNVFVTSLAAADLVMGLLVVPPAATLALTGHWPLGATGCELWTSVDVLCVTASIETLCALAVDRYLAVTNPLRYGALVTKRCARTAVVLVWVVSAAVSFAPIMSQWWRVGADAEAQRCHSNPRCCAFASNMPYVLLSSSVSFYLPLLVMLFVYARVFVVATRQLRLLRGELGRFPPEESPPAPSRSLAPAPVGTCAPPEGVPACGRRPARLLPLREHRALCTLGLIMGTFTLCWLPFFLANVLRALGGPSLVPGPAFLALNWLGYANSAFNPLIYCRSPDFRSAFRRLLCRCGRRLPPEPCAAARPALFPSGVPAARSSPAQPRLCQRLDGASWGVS
# Procedure: Human β3-agonist Activity
# Human β3-agonist activity was examined using CHO cells (chinese hamster ovarian cells) to which pcDNA3 (in vitrogen) cells inserted human β3 gene was transfected. Human β3 fragment was obtained by PCR using human fat tissue cDNA (supplied from Clontech) with a β3 primer [Krief et al, J. Clin. Invest.
# The cells were cultured in a HAM F-12 medium containing 10% of fetal bovine serum, 400 μg/ml of Geneticin (Gibco BRL). 100 U/ml penicillin and 100 μg/ml streptomycin. 5×10^5 cells were placed on a 6-well plate and cultured for 24 hours, after which the medium was changed to a HAM F-12 medium without serum and was kept for 2 hours. Each test compound was first dissolved in DMSO, and then diluted with a HAM F-12 medium containing 1 mM isobutylmethyl xanthine and 1 mM ascorbic acid. A 10-fold dilution in the range of 10^−5 to 10^−12 M was added into the cell.
# After culturing for 30 minutes, culture medium was withdrawn, 0.5 ml of 1 N NaOH was added and was kept for 20 minutes. And then 0.5 ml of 1 N acetic acid was added with subsequent agitation and centrifugation. Finally the concentration of cAMP were analyzed using cAMP EIA KIT (Cayman). […] Isoprotelenol was purchased from Research Biochimicals International.
# canine adipocytes = test: Lipolytic activity in canine fatty cell (glycerol release); type: cell-based, dogs; conditions: Canis lupus familiaris, Adipocyte; for pEC50: 1 h, glycerol release, canine adipocytes, read-out: ED50 (the source's name); for Emax: read-out: Intrinsic activity (%)
# Procedure: Lipolytic Activity in Canine Fatty Cell
# Adipose tissues in the omentum were collected from dogs and minced and washed. Krebs-Ringer buffer solution containing 1 mg/ml Collagenase (Sigma) and 1% of bovine serum albumin was added in an amount of 3 ml per one gram of the tissue. These cells were then incubated at 37° C. for 30 minutes with shaking and then undigested tissues were removed with a nylon filter. The resulting adipocytes were washed four times with Krebs-Ringer buffer, and then the concentration of cells was diluted to 2×10^5/ml with Krebs-Ringer buffer solution containing 4% of bovine serum albumin. These cells were transferred to Eppendorf tubes each in an amount of 300 μl.
# Each 300 μl of a culture medium containing the test compounds were added to these tubes and was held at 37° C. for 1 hour whith shaking. Stimulation was stoped by cooling with ice. After centrifugation, the adipocytes were taken off with an aspirator, whereupon the glycerol was determined using F-KIT GLTCEROL (Behringer-Manheim).
# [1] = cAMP, CHO cells with human β3, read-out: ED50 (the source's name)
pEC50 (human β3; [1]),SMILES,pEC50 (human β3),Emax (human β3) [%],pEC50 (canine adipocytes),Emax (canine adipocytes) [%]
,"CS(=O)(=O)Nc1cc(C(O)CNCCOc2ccc3c(c2)oc2ccccc23)ccc1O (racemic) [Example 4, (±)-N-[5-[2-[2-(Dibenzofuran-3-yloxy)ethylamino]-1-hydroxyethyl]-2-hydroxyphenyl]methanesulfonamide Hydrochloride]",9.28,80,9.15,88
6.12,"CS(=O)(=O)Nc1cccc(C(O)CNCCOc2ccc3c(c2)oc2ccccc23)c1 (racemic) [Example 9, (±)-N-[3-[2-[2-(Dibenzofuran-3-yloxy)ethylamino]-1-hydroxyethl]phenyl]methanesulfonamide Hydrochloride]",,85,6.60,106
,"CN(C)S(=O)(=O)Nc1cc(C(O)CNCCOc2ccc3c(c2)[nH]c2ccccc23)ccc1O (racemic) [Example 25, (±)-N′-[5-[2-[2-(9H-Carbazol-2-yloxy)ethylamino]-1-hydroxyethyl]-2-hydroxyphenyl]-N,N-dimethylsulfamide Hydrochloride]",8.68,95,6.29,70
,"CS(=O)(=O)Nc1cc(C(O)CNCCOc2ccc3c(c2)sc2ccccc23)ccc1O (racemic) [Example 38, (±)-N-[5-[2-[2-(Dibenzothiophen-3-yloxy)ethylamino]-1-hydroxyethyl]-2-hydroxyphenyl]methanesulfonamide Hydrochloride]",11.22,76,8.59,103
,"CN(C)S(=O)(=O)Nc1cc(C(O)CNCCOc2ccc3c(c2)sc2ccccc23)ccc1O (racemic) [Example 40, (±)-N′-[5-[2-[2-(Dibenzothiophen-3-yloxy)ethylamino]-1-hydroxyethyl]-2-hydroxyphenyl]-N, N-dimethylsulfamide Hydrochloride]",6.70,97,7.89,92
6.22,"CS(=O)(=O)Nc1cccc(C(O)CNCCOc2ccc3c(c2)sc2ccccc23)c1 (racemic) [Example 41, (±)-N-[3-[2-[2-(Dibenzothiophen-3-yloxy)ethlamino]-1-hydroxyethyl]phenyl]methanesulfonamide Hydrochloride]",,63,6.62,109
,"CCN(CC)S(=O)(=O)Nc1cc(C(O)CNCCOc2ccc3c(c2)[nH]c2ccccc23)ccc1O (racemic) [Example 88, (±)-N′-[5-[2-[2-(9H-Carbazol-2-yloxy)ethylamino]-1-hydroxyethyl]-2-hydroxyphenyl]-N,N-diethylsulfamide Hydrochloride]",6.41,86,,
6.46,"CN(C)S(=O)(=O)c1cc(C(O)CNCCOc2ccc3c(c2)[nH]c2ccccc23)ccc1O (racemic) [Example 89, (±)-N,N-Dimethyl-(5-[2-[2-(9H-carbazol-2-yloxy)ethylamino]-1-hydroxyethyl]-2-hydroxy]benzenesulfonamide Hydrochloride]",,73,,
,"COC(CNCCOc1ccc2c(c1)[nH]c1ccccc12)c1ccc(O)c(NS(C)(=O)=O)c1 (racemic) [Example 90, (±)-N-[5-[2-[2-(9H-Carbazol-2-yloxy)ethylamino]-1-methoxyethyl]-2-hydroxyphenyl]methanesulfonamide Hydrochloride]",6.72,102,,
,"CS(=O)(=O)Nc1cc([C@@H](O)CNCCOc2ccc3c(c2)[nH]c2ccccc23)ccc1O [Example 12, (R)-N-[5-[2-[2-(9H-Carbazol-2-yloxy)ethylamino]-1-hydroxyethyl]-2-hydroxyphenyl]methanesulfonamide Hydrochloride]",9.85,113,,
,"CS(=O)(=O)Nc1cc([C@H](O)CNCCOc2ccc3c(c2)[nH]c2ccccc23)ccc1O [Example 13, (S)-N-[5-[2-[2-(9H-Carbazol-2-yloxy)ethylamino]-1-hydroxyethyl]-2-hydroxyphenyl]methanesulfonamide Hydrochloride]",8.57,110,,
,"CS(=O)(=O)Nc1cccc([C@@H](O)CNCCOc2ccc3c(c2)[nH]c2ccccc23)c1 [Example 14, (R)-N-[3-[2-[2-(9H-Carbazol-2-yloxy)ethylamino]-1-hydroxyethyl]phenyl]methanesulfonamide Hydrochloride]",8.55,97,,
,"CS(=O)(=O)Nc1cccc([C@H](O)CNCCOc2ccc3c(c2)[nH]c2ccccc23)c1 [Example 15, (S)-N-[3-[2-[2-(9H-Carbazol-2-yloxy)ethylamino]-1-hydroxyethyl]phenyl]methanesulfonamide Hydrochloride]",6.96,88,,
6.28,"C[C@H](COc1ccc2c(c1)[nH]c1ccccc12)NC[C@H](O)c1ccccc1 [Example 35, (R,R)-2-[N-[1-(9H-Carbazol-2-yloxy)propan-2-yl]amino]-1-phenylmethanol Hydrochloride]",,90,,
,"CS(=O)(=O)Nc1cccc([C@@H](O)CNCCOc2ccc3c(c2)oc2ccccc23)c1 [Example 70, (R)-N-[3-[2-[2-(Dibenzofuran-3-yloxy)ethylamino]-1-hydroxyethyl]phenyl]methanesulfonamide Hydrochloride]",6.52,76,,
,"CN(C)S(=O)(=O)Nc1cc([C@@H](O)CNCCOc2ccc3c(c2)[nH]c2ccccc23)ccc1O [Example 73, (R)-N′-[5-[2-[2-(9H-Carbazol-2-yloxy)ethylamino]-1-hydroxyethyl]-2-hydroxyphenyl]-N,N-dimethylsulfamide Hydrochloride]",10.42,102,,
,"CN(C)S(=O)(=O)Nc1cc([C@H](O)CNCCOc2ccc3c(c2)[nH]c2ccccc23)ccc1O [Example 74, (S)-N′-[5-[2-[2-(9H-Carbazol-2-yloxy)ethylamino]-1-hydroxyethyl]-2-hydroxyphenyl]-N,N-dimethylsulfamide Hydrochloride]",9.13,114,,
,"CN(C)S(=O)(=O)Nc1cc([C@@H](O)CNCCOc2ccc3c(c2)oc2ccccc23)ccc1O [Example 75, (R)-N′-[5-[2-[2-(Dibenzofuran-3-yloxy)ethylamino]-1-hydroxyethyl]-2-hydroxyphenyl]-N,N-dimethylsulfamide Hydrochloride]",7.06,105,,
,"CN(C)S(=O)(=O)Nc1cc([C@H](O)CNCCOc2ccc3c(c2)oc2ccccc23)ccc1O [Example 76, (S)-N′-[5-[2-[2-(Dibenzofuran-3-yloxy)ethylamino]-1-hydroxyethyl]2-hydroxyphenyl]-N,N-dimethylsulfamide Hydrochloride]",6.28,131,,
,"CS(=O)(=O)Nc1cc([C@@H](O)CNCCOc2ccc3c(c2)[nH]c2ccccc23)ccc1F [Example 77, (R)-N-[5-[2-[2-(9H-Carbazol-2-yloxy)ethylamino]-1-hydroxyethyl]-2-fluorophenyl]methanesulfonamide Hydrochloride]",7.68,100,,
,"CS(=O)(=O)Nc1cc([C@H](O)CNCCOc2ccc3c(c2)[nH]c2ccccc23)ccc1F [Example 78, (S)-N-[5-[2-[2-(9H-Carbazol-2-yloxy)ethylamino]-1-hydroxyethyl]-2-fluorophenyl]methanesulfonamide Hydrochloride]",7.29,110,,
,"CS(=O)(=O)Nc1cc([C@@H](O)CNCCOc2ccc3c(c2)[nH]c2ccccc23)ccc1Cl [Example 79, (R)-N-[5-[2-[2-(9H-Carbazol-2-yloxy)ethylamino]-1-hydroxyethyl]-2-chlorophenyl]methanesulfonamide Hydrochloride]",8.92,107,,
,"CS(=O)(=O)Nc1cc([C@H](O)CNCCOc2ccc3c(c2)[nH]c2ccccc23)ccc1Cl [Example 80, (S)-N-[5-[2-[2-(9H-Carbazol-2-yloxy)ethylamino]-1-hydroxyethyl]-2-chlorophenyl]methanesulfonamide Hydrochloride]",7.24,110,,
8.21,"CNS(=O)(=O)c1cc([C@@H](O)CNCCOc2ccc3c(c2)[nH]c2ccccc23)ccc1O [Example 81, (R)-N-methyl-[5-(2-[2-(9H-Carbazol-2-yloxy)ethylamino]-1-hydroxyethyl]-2-hydroxy]benzenesulfonamide Hydrochloride]",,98,,
,"CC(C)NCC(O)c1ccc(O)c(O)c1 (centres unmarked) [Isoproterenol, reference compound]",,,8.77,100
